Experimental data published in PubChem BioAssay (NCI).
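Each compound was tested at five concentrations against cells in 96-well plates for 48 hours. At the TGI there is no net growth.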

Key:
Test in all cases: DTP human tumour cell line panel, 48 h
HL-60(TB) leukemia = tested on: HL-60(TB) leukemia
KM12 colon = tested on: KM12 colon
MOLT-4 leukemia = tested on: MOLT-4 leukemia
HOP-62 NSCLC = tested on: HOP-62 NSCLC
SF-295 CNS = tested on: SF-295 CNS
OVCAR-3 ovarian = tested on: OVCAR-3 ovarian
HCC-2998 colon = tested on: HCC-2998 colon
BT-549 breast = tested on: BT-549 breast
SN12C renal = tested on: SN12C renal
DU-145 prostate = tested on: DU-145 prostate
RPMI-8226 leukemia = tested on: RPMI-8226 leukemia
PC-3 prostate = tested on: PC-3 prostate
K-562 leukemia = tested on: K-562 leukemia
CCRF-CEM leukemia = tested on: CCRF-CEM leukemia
SW-620 colon = tested on: SW-620 colon
MDA-MB-231 breast = tested on: MDA-MB-231 breast
ACHN renal = tested on: ACHN renal
U251 CNS = tested on: U251 CNS
EKVX NSCLC = tested on: EKVX NSCLC
OVCAR-5 ovarian = tested on: OVCAR-5 ovarian
MDA-N = tested on: MDA-N
HCT-116 colon = tested on: HCT-116 colon
SK-OV-3 ovarian = tested on: SK-OV-3 ovarian
NCI/ADR-RES ovarian = tested on: NCI/ADR-RES ovarian
MDA-MB-435 = tested on: MDA-MB-435
M14 melanoma = tested on: M14 melanoma
A549 NSCLC = tested on: A549 NSCLC
MALME-3M melanoma = tested on: MALME-3M melanoma
NCI-H460 lung = tested on: NCI-H460 lung
LOX IMVI melanoma = tested on: LOX IMVI melanoma
NCI-H23 lung = tested on: NCI-H23 lung
TK-10 renal = tested on: TK-10 renal
A498 renal = tested on: A498 renal
NCI-H226 lung = tested on: NCI-H226 lung
UO-31 renal = tested on: UO-31 renal
RXF 393 renal = tested on: RXF 393 renal
SK-MEL-28 melanoma = tested on: SK-MEL-28 melanoma
SNB-19 CNS = tested on: SNB-19 CNS
COLO 205 colon = tested on: COLO 205 colon
UACC-62 melanoma = tested on: UACC-62 melanoma
SF-539 CNS = tested on: SF-539 CNS
SR leukemia = tested on: SR leukemia
NCI-H522 lung = tested on: NCI-H522 lung
OVCAR-4 ovarian = tested on: OVCAR-4 ovarian
IGROV1 ovarian = tested on: IGROV1 ovarian
SF-268 CNS = tested on: SF-268 CNS
MCF7 breast = tested on: MCF7 breast
UACC-257 melanoma = tested on: UACC-257 melanoma
T-47D breast = tested on: T-47D breast
HOP-92 NSCLC = tested on: HOP-92 NSCLC
786-0 renal = tested on: 786-0 renal
OVCAR-8 ovarian = tested on: OVCAR-8 ovarian
HCT-15 colon = tested on: HCT-15 colon
HT29 colon = tested on: HT29 colon
CAKI-1 renal = tested on: CAKI-1 renal
SK-MEL-5 melanoma = tested on: SK-MEL-5 melanoma
HS 578T breast = tested on: HS 578T breast
SNB-75 CNS = tested on: SNB-75 CNS
SK-MEL-2 melanoma = tested on: SK-MEL-2 melanoma

Measured: TGI

NC(=S)N/N=C1\CCc2ccccc2C1
> 100 µM: HL-60(TB) leukemia | KM12 colon | MOLT-4 leukemia | HOP-62 NSCLC | SF-295 CNS | OVCAR-3 ovarian | HCC-2998 colon | BT-549 breast | SN12C renal | DU-145 prostate | RPMI-8226 leukemia | PC-3 prostate | K-562 leukemia | CCRF-CEM leukemia | SW-620 colon | MDA-MB-231 breast | ACHN renal | U251 CNS | EKVX NSCLC | OVCAR-5 ovarian | MDA-N | HCT-116 colon | SK-OV-3 ovarian | NCI/ADR-RES ovarian | MDA-MB-435 | M14 melanoma | A549 NSCLC | MALME-3M melanoma | NCI-H460 lung | LOX IMVI melanoma | NCI-H23 lung | TK-10 renal | A498 renal | NCI-H226 lung | UO-31 renal | RXF 393 renal | SK-MEL-28 melanoma | SNB-19 CNS | COLO 205 colon | UACC-62 melanoma | SF-539 CNS | SR leukemia | NCI-H522 lung | OVCAR-4 ovarian | IGROV1 ovarian | SF-268 CNS | MCF7 breast | UACC-257 melanoma | T-47D breast | HOP-92 NSCLC | 786-0 renal | OVCAR-8 ovarian | HCT-15 colon | HT29 colon

N=c1oc2ccccc2cc1C(=O)Nc1ccccn1
54 µM: MALME-3M melanoma
> 100 µM: HL-60(TB) leukemia | KM12 colon | MOLT-4 leukemia | HOP-62 NSCLC | OVCAR-3 ovarian | HCC-2998 colon | BT-549 breast | SN12C renal | DU-145 prostate | RPMI-8226 leukemia | K-562 leukemia | CCRF-CEM leukemia | SW-620 colon | MDA-MB-231 breast | ACHN renal | U251 CNS | EKVX NSCLC | OVCAR-5 ovarian | MDA-N | HCT-116 colon | SK-OV-3 ovarian | NCI/ADR-RES ovarian | MDA-MB-435 | M14 melanoma | A549 NSCLC | CAKI-1 renal | NCI-H460 lung | SK-MEL-5 melanoma | LOX IMVI melanoma | NCI-H23 lung | HS 578T breast | A498 renal | NCI-H226 lung | RXF 393 renal | SK-MEL-28 melanoma | SNB-19 CNS | SNB-75 CNS | COLO 205 colon | UACC-62 melanoma | SF-539 CNS | SR leukemia | OVCAR-4 ovarian | IGROV1 ovarian | SK-MEL-2 melanoma | SF-268 CNS | UACC-257 melanoma | T-47D breast | HOP-92 NSCLC | 786-0 renal | OVCAR-8 ovarian | HCT-15 colon | HT29 colon

CCOc1ccc(NC(=O)/C=C/c2ccco2)cc1
44.5 µM: HL-60(TB) leukemia
22 µM: MDA-MB-435
> 100 µM: KM12 colon | MOLT-4 leukemia | SF-295 CNS | HCC-2998 colon | BT-549 breast | SN12C renal | DU-145 prostate | RPMI-8226 leukemia | PC-3 prostate | K-562 leukemia | CCRF-CEM leukemia | SW-620 colon | MDA-MB-231 breast | ACHN renal | U251 CNS | EKVX NSCLC | OVCAR-5 ovarian | MDA-N | HCT-116 colon | SK-OV-3 ovarian | NCI/ADR-RES ovarian | M14 melanoma | A549 NSCLC | MALME-3M melanoma | CAKI-1 renal | NCI-H460 lung | SK-MEL-5 melanoma | LOX IMVI melanoma | NCI-H23 lung | HS 578T breast | TK-10 renal | A498 renal | NCI-H226 lung | UO-31 renal | RXF 393 renal | SK-MEL-28 melanoma | SNB-19 CNS | SNB-75 CNS | COLO 205 colon | UACC-62 melanoma | SF-539 CNS | SR leukemia | NCI-H522 lung | IGROV1 ovarian | SK-MEL-2 melanoma | SF-268 CNS | MCF7 breast | UACC-257 melanoma | 786-0 renal | OVCAR-8 ovarian | HCT-15 colon | HT29 colon

COC(=O)/C=C1/OC(c2ccccc2)=C(Br)C1=O
53.4 µM: BT-549 breast
36.7 µM: SW-620 colon
89.2 µM: SN12C renal
81.6 µM: 786-0 renal
43.3 µM: LOX IMVI melanoma
> 100 µM: HL-60(TB) leukemia | KM12 colon | MOLT-4 leukemia | HOP-62 NSCLC | OVCAR-3 ovarian | HCC-2998 colon | DU-145 prostate | RPMI-8226 leukemia | PC-3 prostate | K-562 leukemia | CCRF-CEM leukemia | ACHN renal | U251 CNS | EKVX NSCLC | OVCAR-5 ovarian | MDA-N | HCT-116 colon | SK-OV-3 ovarian | MDA-MB-435 | M14 melanoma | MALME-3M melanoma | NCI-H460 lung | SK-MEL-5 melanoma | NCI-H23 lung | TK-10 renal | A498 renal | NCI-H226 lung | UO-31 renal | RXF 393 renal | SK-MEL-28 melanoma | SNB-19 CNS | SNB-75 CNS | COLO 205 colon | UACC-62 melanoma | SF-539 CNS | SR leukemia | OVCAR-4 ovarian | SF-268 CNS | MCF7 breast | UACC-257 melanoma | T-47D breast | HOP-92 NSCLC | OVCAR-8 ovarian | HCT-15 colon
51.3 µM: CAKI-1 renal
62.2 µM: NCI-H522 lung
50.6 µM: HT29 colon
66.3 µM: MDA-MB-231 breast
